Test results: US12186397B2, “Adhesive cell tissue gels” (National Cheng Kung University, priority 2011, dated 2025)
Entries after “also recorded” stand apart in the source; their conditions may differ. Like-named read-outs stand apart in the source and are kept apart here.

Columns and labels:
Fibroblasts [1] = test: Viability of cells in contact with crosslinking agents or gels with quenching agents (Example 2); assay type: cell-based
Description: Gels containing various ratios of reactive groups in crosslinking agents to those in the matrix molecules with quenching agents were prepared as indicated in Table 2. Normality was used to indicate the number of reactive groups in the crosslinking agents, the number of functional groups in the matrix molecules, or the number of moieties in the quenching agents. Live cells were seeded and added to the gels, and cell viability was observed. Crosslinking agents were divided into two groups: highly toxic and less toxic. Glutaraldehyde was one of the highly toxic crosslinking agents and epoxide and genipin were the less toxic crosslinking agents. The quenching agents tested were poly-L-lysine and γ-polyglutamic acid.
The above results were summarized from various sets of experiments. Specifically, final concentrations of 0.1 mN, 0.5 mN, 1 mN, and 5 mN of glutaraldehyde were tested alone or added to a gelatin or collagen solution in the presence of poly-L-Lysine as a quenching reagent.

NIH3T3 fibroblast cells = test: Toxicity of collagen gels with crosslinking agents (Example 3); assay type: cell-based; settings: for relative toxicity among the three crosslinking agents: collagen gels
Description: Gels were prepared from collagen with glutaraldehyde, EX-810, and genipin at 5 mN, 1 mN, 0.5 mN, and 0.1 mN, respectively. Out of the three crosslinking agents, glutaraldehyde was the most toxic and genipin was the least toxic. Normality was used to indicate the numbers of reactive groups in the crosslinking agents. NIH3T3 fibroblast cells were cultured with the gels and a culture medium in a 96-well plate at 4×10^4 cells per well. Cell viability was observed.

Fibroblasts [2] = test system: Fibroblasts
Description: The cytotoxic effect of the adhesive was evaluated by applying 10 μL of the adhesive to the center of a well of a 24-well plate. Fibroblasts (2.0×10^4 cell/well) were seeded and incubated at 37° C. with 5% CO2 for 38 hours. The number of viable cells was quantified by a hemacytometer.

## COC(=O)C1=CO[C@@H](O)[C@@H]2C(CO)=CC[C@H]12 [genipin]
Fibroblasts [1]; 5 mN crosslinker and total 5 mN collagen and poly-L-lysine
  fibroblast viability in gel: some fibroblasts died; also recorded: most fibroblasts survived in the distal area
Fibroblasts [1]; Normality ratio 1:1 of reactive groups in crosslinking agent to functional groups in matrix molecules and quenching agents
  Viability of cells: Some
Fibroblasts [1]; Normality ratio 1:5
  Viability of cells (alive): 100%
Fibroblasts [1]; Normality ratio 1:10
  Viability of cells (alive): 100%
Fibroblasts [1]; Normality ratio 1:50
  Viability of cells (alive): 100%
Fibroblasts [1]; Normality ratio 5:1 of reactive groups in crosslinking agent to functional groups in matrix molecules and quenching agents
  Viability of cells: All die
Fibroblasts [1]; crosslinking agent only, 1 mN
  Viability of cells (alive): ≥80%
Fibroblasts [1]; crosslinking agent only, ≥5 mN
  Viability of cells: All die
NIH3T3 fibroblast cells; collagen gel, 1 mN crosslinker
  cell proliferation: no cell proliferation
  cells survived: over 80%
NIH3T3 fibroblast cells; collagen gel, 5 mN crosslinker
  cell viability: all cells died
NIH3T3 fibroblast cells
  relative toxicity among the three crosslinking agents: least toxic
Fibroblasts [2]
  cytotoxicity of the adhesive: increased with elevated concentration of genipin

## O=CCCCC=O [glutaraldehyde]
Fibroblasts [1]
  Viability of cells (alive): 100%
  cell viability in gel: most adjacent cells died
  fibroblast viability in gel: survived and proliferated like the control groups
Fibroblasts [1]; 24 h, 0.1 mN
  Viability of cells (alive): ~20%
  cells survived: about 20%
NIH3T3 fibroblast cells; collagen gel, 0.1 mN crosslinker
  cells adhered to the gel: 20%
NIH3T3 fibroblast cells; collagen gel, 0.5 mN crosslinker, 24 hours of culturing
  cell viability: most cells died
NIH3T3 fibroblast cells
  relative toxicity among the three crosslinking agents: most toxic
